Assay results taken from patent publication US12325676B2, “Cationic lipid compound and composition for delivery of nucleic acids and use thereof” (Shenzhen Rhegen Biotechnology Co., Ltd., priority 2022, dated 2025).

Columns and labels:
[1] = Encapsulation rate of mRNA-loaded lipid nanoparticles (Ribogreen kit); format: physicochemical
Experimental: (§1) Luciferase mRNA was diluted in 10-100 mM citrate buffer at pH 4.0; the lipid components (cationic lipids shown in the present disclosure: DSPC:cholesterol:PEG lipids (DMG-PEG2000)) were dissolved in ethanol at a molar ratio of 50:10:38.5:1.5.
(§2) 3 mL of a mRNA buffer and 1 mL of a lipid solution were loaded into two 5 mL syringes respectively, and the syringes were installed on a microfluidic syringe pump. Chips were connected to the syringes and syringe pump flow rate was set. Clicking the start button of the syringe pump caused injection into the chip at a flow rate ratio of 3:1. Under observation of the color of the product at the exit of the chip, after discarding the first 5 milky white droplets (about 100 μL), the back-end sample was collected into an EP tube. The collected product was placed in a dialysis bag and dialyzed for 6 h (MWCO: 100 KDa) in 10 mM PBS (pH 7.4) intervals. Subsequently, after being concentrated by ultrafiltration to the desired concentration, the lipid nanoparticles were filtered through a 0.22 μm sterile filter and then stored at 4° C.
(§3) Tests were performed to calculate the encapsulation rate of the products according to the instructions of Ribogreen kit. Particle size and polydispersity index (PDI) detection as well as zeta potential analysis was performed on a Malvern Zetasizer nano instrument using standard assays.

[2] = Particle size, PDI and zeta potential of mRNA-loaded lipid nanoparticles (Malvern Zetasizer nano); format: physicochemical
Experimental: as §1, §2, §3

[3] = tested on: BALB/c mice; assay: In vivo EPO protein expression after tail i.v. injection of EPO-mRNA LNP, serum ELISA; settings: 6 hours after tail i.v. injection of 20 μg EPO-mRNA-lipid nanoparticles, female Balb/c mice
Experimental: In the example, the effects of in vivo transfection of erythropoietin (EPO) by various cationic liposomes were compared. Nanoparticles were prepared in the same manner as in Example 20, and the nucleotide sequence corresponding to the EPO mRNA used is given in CN114380724B, SEQ ID NO:2. After preparation, 20 μg of EPO-mRNA-lipid nanoparticles were injected via tail intravenous injection in 6-8 week female Balb/c mice. 6 hours later the mice were subjected to blood sampling from the eye frame. After centrifugation to separate the serum, EPO protein expression was determined using ELISA. The basic characteristics of the mRNA used include ARCA cap structure, polyA tail length of 100-120 nt, and complete substitution of pseudouridine.

[4] = Encapsulation rate of mRNA-loaded lipid nanoparticles (Ribogreen kit); format: physicochemical; settings: Table 4 batch; EPO mRNA LNP prepared as Example 20
[5] = Particle size, PDI and zeta potential of mRNA-loaded lipid nanoparticles (Malvern Zetasizer nano); format: physicochemical; settings: Table 4 batch; EPO mRNA LNP prepared as Example 20
[6] = tested on: BALB/c mice; assay: In vivo expression of luciferase mRNA delivered by LNP, tail intravenous injection, small animal imaging; settings: Table 3, 5 μg mRNA, female BALB/c mice, DLin-MC3-DMA = 100
Experimental: LUC-mRNA-lipid nanoparticles containing 5 μg mRNA (see SEQ ID NO: 1 in the Patent Application Publication CN114380724A for the corresponding nucleotide sequence of LUC-mRNA) were injected via tail intravenous injection in 6-8 week old female BALB/c mice, prepared as in Example 19. 100 μg of D-Luciferin Potassium Salt was injected via tail intravenous injection into the mice at specific time points and assayed using the PerkinElmer Small Animal Imaging System. Fluc is commonly used in mammalian cell cultures to measure gene expression and cell viability, and it emits biological fluorescent light in the presence of the substrate […]. The basic characteristics of the mRNA used include ARCA cap structure, polyA tail length of 120 nt, and complete substitution of pseudouridine.
The effect of delivering luciferase mRNA using more cationic lipids were validated according to the methods of Example 20 and Example 21.

[7] = tested on: C57BL6 mice; assay: Intratumoral injection of luciferase mRNA LNP, fluorescence of tumor and liver; format: in vivo; settings: luciferase mRNA LNP 25 μL/2.5 μg intratumoral, B 16F 10 tumor in C57BL6 mice, imaging after 24 h (FIGS. 6 and 7)
Experimental: Different types of lipid nanoparticles encapsulating luciferase mRNA in were prepared accordance with the preparation of Example 20. Tumors were injected subcutaneously in the right abdomen of 6-8 week female C57BL6 mice at 5×10^5 B 16F 10 cells (from CAS Cell Bank, CSTR:19375.09.3101MOUTCM36)/mouse, and tumor growth was observed and recorded periodically. On the 8th day after tumor inoculation, the length (L, mm) and width (D, mm) of the tumors were measured by using a vernier caliper, and the tumor volume (V) was calculated according to the formula V=(L×D^2)/2. Mice with tumor volume in the range of 80-120 mm^3 were taken and randomly grouped, and intratumorally injected with different types of lipid nanoparticles encapsulating luciferase mRNA at the volume of 25 μL/2.5 μg. Anatomical imaging was performed after 24 h to detect the fluorescence intensity of the mouse liver and tumor (as shown in FIGS. 6 and 7). […] This indicates better in situ tumor expression and lower liver […], which is suitable for encapsulation and delivery of some tumor therapy-related nucleic acid drugs.

[8] = Table 1, Luciferase mRNA LNP, cationic lipid:DSPC:cholesterol:DMG-PEG2000 50:10:38.5:1.5 molar
[9] = Table 3 batch, luciferase mRNA LNP prepared as Example 20

CCCCCCCCCCOCC(C)C(=O)OCCCCCN(CCO)CCCCCCCC(=O)OC(CCCCCCCC)CCCCCCCC (stereo not drawn) [Compound 2]
Encapsulation rate (%) [1, 8]: 87.8%
PDI [2, 8]: 0.12
Particle size (nm) [2, 8]: 97.3 nm
Zeta potential (mV) [2, 8]: 0.49 mV

CCCCCCCCCCOCC(CC)C(=O)OCCCCCN(CCO)CCCCCCCC(=O)OC(CCCCCCCC)CCCCCCCC (stereo not drawn) [Compound 3]
Encapsulation rate (%) [1, 8]: 87.5%
PDI [2, 8]: 0.10
Particle size (nm) [2, 8]: 113.9 nm
Zeta potential (mV) [2, 8]: 1.95 mV

CCCCCCCCCCOCC(CCC)C(=O)OCCCCCN(CCO)CCCCCCCC(=O)OC(CCCCCCCC)CCCCCCCC (stereo not drawn) [Compound 4]
Encapsulation rate (%) [1, 8]: 83.7%
PDI [2, 8]: 0.21
Particle size (nm) [2, 8]: 94.4 nm
Zeta potential (mV) [2, 8]: 0.39 mV

CCCCCCCCOCC(CCCC)C(=O)OCCCCCN(CCO)CCCCCCCC(=O)OC(CCCCCCCC)CCCCCCCC (stereo not drawn) [Compound 6]
Encapsulation rate (%) [1, 8]: 63.9%
PDI [2, 8]: 0.17
Particle size (nm) [2, 8]: 95.6 nm
Zeta potential (mV) [2, 8]: 0.79 mV

CCCCCCCCC(CCCCCCCC)OC(=O)CCCCCCCN(CCO)CCCCCCC(=O)OCCOCCCCCCC [Compound 14]
Encapsulation rate (%) [1, 8]: 95.7%
PDI [2, 8]: 0.22
Particle size (nm) [2, 8]: 119.0 nm
Zeta potential (mV) [2, 8]: −3.27 mV

CCCCCCCCOCC(C)C(=O)OCCCCCN(CCO)CCCCCCCOC(=O)C(CCCCCCCC)CCCCCCCC (stereo not drawn) [Compound 16]
EPO concentration [3]: 3.01e+07 pg/mL
Encapsulation rate (%) [4]: 96.5%
Encapsulation rate (%) [1, 9]: 95.6%
PDI [5]: 0.12
Particle size (nm) [5]: 75.4 nm
PDI [2, 9]: 0.20
Particle size (nm) [2, 9]: 90.9 nm
relative fluorescence intensity (%) [6]: 574 ± 102%

CCCCCCCCC(CCCCCCCC)C(=O)OCCCCCCCN(CCO)CCCCCCCOC(=O)C(C)COCCCCCC (stereo not drawn) [Compound 17]
EPO concentration [3]: 3.25e+07 pg/mL
Encapsulation rate (%) [4]: 96.9%
Encapsulation rate (%) [1, 8]: 92.5%
Encapsulation rate (%) [1, 9]: 97.6%
PDI [5]: 0.09
Particle size (nm) [5]: 74.0 nm
PDI [2, 8]: 0.10
Particle size (nm) [2, 8]: 90.9 nm
Zeta potential (mV) [2, 8]: −0.15 mV
PDI [2, 9]: 0.11
Particle size (nm) [2, 9]: 68.2 nm
relative fluorescence intensity (%) [6]: 686 ± 45%

CCCCCCCCC(CCCCCCCC)OC(=O)CCCCCCCN(CCO)CCCCCCCOC(=O)C(C)COCCCCCC (stereo not drawn) [Compound 23]
EPO concentration [3]: 4.11e+07 pg/mL
Encapsulation rate (%) [4]: 96.5%
Encapsulation rate (%) [1, 9]: 97.0%
PDI [5]: 0.11
Particle size (nm) [5]: 81.7 nm
PDI [2, 9]: 0.10
Particle size (nm) [2, 9]: 75.4 nm
relative fluorescence intensity (%) [6]: 764 ± 39%

CCCCCCCCOCC(C)C(=O)OCCCCCN(CCCCCCCC(=O)OC(CCCCCCCC)CCCCCCCC)CCN(CC)CC (stereo not drawn) [Compound 28]
Encapsulation rate (%) [1, 8]: 95.9%
PDI [2, 8]: 0.04
Particle size (nm) [2, 8]: 127.6 nm
Zeta potential (mV) [2, 8]: 5.29 mV

CCCCCCCCCCSCCC(=O)OCCCCCN(CCO)CCCCCCCC(=O)OC(CCCCCCCC)CCCCCCCC [Compound 29]
Encapsulation rate (%) [1, 8]: 95.6%
PDI [2, 8]: 0.03
Particle size (nm) [2, 8]: 105.5 nm
Zeta potential (mV) [2, 8]: −1.31 mV

CCCCCCCCCCSCC(C)C(=O)OCCCCCN(CCO)CCCCCCCC(=O)OC(CCCCCCCC)CCCCCCCC (stereo not drawn) [Compound 30]
Encapsulation rate (%) [1, 8]: 95.7%
PDI [2, 8]: 0.11
Particle size (nm) [2, 8]: 121.2 nm
Zeta potential (mV) [2, 8]: −0.26 mV

CCCCCCCCSCC(CC)C(=O)OCCCCCN(CCO)CCCCCCCC(=O)OC(CCCCCCCC)CCCCCCCC (stereo not drawn) [Compound 36]
Encapsulation rate (%) [1, 8]: 93.9%
PDI [2, 8]: 0.11
Particle size (nm) [2, 8]: 98.4 nm
Zeta potential (mV) [2, 8]: 0.55 mV

CCCCCCCCCCSCCOC(=O)CCCCCCCN(CCO)CCCCCCCC(=O)OC(CCCCCCCC)CCCCCCCC [Compound 41]
Encapsulation rate (%) [1, 8]: 94.9%
PDI [2, 8]: 0.17
Particle size (nm) [2, 8]: 123.4 nm
Zeta potential (mV) [2, 8]: −7.02 mV

CCCCCCCCSCC(C)C(=O)OCCCCCN(CCO)CCCCCCCOC(=O)C(CCCCCCCC)CCCCCCCC (stereo not drawn) [Compound 44]
EPO concentration [3]: 4.89e+07 pg/mL
Encapsulation rate (%) [4]: 95.5%
Encapsulation rate (%) [1, 8]: 96.4%
Encapsulation rate (%) [1, 9]: 97.1%
PDI [5]: 0.17
Particle size (nm) [5]: 82.5 nm
PDI [2, 8]: 0.21
Particle size (nm) [2, 8]: 104.1 nm
Zeta potential (mV) [2, 8]: −2.82 mV
PDI [2, 9]: 0.10
Particle size (nm) [2, 9]: 71.1 nm
relative fluorescence intensity (%) [6]: 843 ± 52%

CCCCCCCCC(CCCCCCCC)C(=O)OCCCCCCCN(CCO)CCCCCCCOC(=O)C(C)CSCCCCCC (stereo not drawn) [Compound 45]
EPO concentration [3]: 3.46e+07 pg/mL
Encapsulation rate (%) [4]: 93.9%
Encapsulation rate (%) [1, 9]: 96.8%
PDI [5]: 0.15
Particle size (nm) [5]: 81.0 nm
PDI [2, 9]: 0.15
Particle size (nm) [2, 9]: 80.9 nm
relative fluorescence intensity (%) [6]: 559 ± 33%

CCCCCCCCSC(CCCCCC)C(=O)OCCCCCCN(CCO)CCCCCCOC(=O)C(CCCCCC)CCCCCCCC (stereo not drawn) [Compound 46]
Encapsulation rate (%) [1, 8]: 95.6%
PDI [2, 8]: 0.11
Particle size (nm) [2, 8]: 101.3 nm
Zeta potential (mV) [2, 8]: −4.12 mV

CCCCCCCCSCC(C)C(=O)OCCCCCN(CCCO)CCCCCCCC(=O)OC(CCCCCCCC)CCCCCCCC (stereo not drawn) [Compound 48]
Encapsulation rate (%) [1, 8]: 92.5%
PDI [2, 8]: 0.10
Particle size (nm) [2, 8]: 94.2 nm
Zeta potential (mV) [2, 8]: −0.14 mV

CCCCCCCCC(CCCCCCCC)OC(=O)CCCCCCCN(CCO)CCCCCCCOC(=O)C(C)CSCCCCCC (stereo not drawn) [Compound 51]
EPO concentration [3]: 6.68e+07 pg/mL
Encapsulation rate (%) [4]: 95.0%
Encapsulation rate (%) [1, 9]: 98.0%
brightness (fluorescence intensity) at the tumor [7]: higher brightness at the tumor
brightness (fluorescence intensity) in the liver [7]: lower brightness in the liver
PDI [5]: 0.14
Particle size (nm) [5]: 75.3 nm
PDI [2, 9]: 0.11
Particle size (nm) [2, 9]: 91.0 nm
relative fluorescence intensity (%) [6]: 734 ± 51%

CCCCCCCCSCCOC(=O)CCCCCCCN(CCCCCCCC(=O)OC(CCCCCCCC)CCCCCCCC)CCN(C)C [Compound 55]
Encapsulation rate (%) [1, 8]: 91.1%
PDI [2, 8]: 0.13
Particle size (nm) [2, 8]: 102.3 nm
Zeta potential (mV) [2, 8]: 7.37 mV

CCCCCCCCCCSCCC(=O)OCCCCCN(CCCCCCCC(=O)OC(CCCCCCCC)CCCCCCCC)CCN(C)C [Compound 57]
Encapsulation rate (%) [1, 8]: 94.1%
PDI [2, 8]: 0.24
Particle size (nm) [2, 8]: 122.8 nm
Zeta potential (mV) [2, 8]: 7.09 mV
